Assay [1] deals with T1, catalytic domain of human Bub1 (amino acids 704-1085) (Homo sapiens, UniProt O43683).
T1 construct: catalytic domain of human Bub1 (amino acids 704-1085); His6 (N); made in house; host or cells: Hi5 insect cells
As to the kind of experiment: Bub1 kinase assay (TR-FRET). It counts as biochemical. How it is done: To this end, 100-fold concentrated compound solutions (in DMSO) were previously prepared by serial dilution (1:3.4) of 2 mM stocks in a clear low volume 384-well source microtiter plate (Greiner Bio-One, Frickenhausen, Germany), from which 50 nL of compounds were transferred into a black low volume test microtiter plate from the same supplier. […] The resulting mixture (5 μL final volume) was incubated at 22° C. during 60 min., and the reaction was stopped by the addition of 5 μL of an aqueous EDTA-solution (50 mM EDTA, in 100 mM HEPES pH 7.5 and 0.2% (w/v) bovine serum albumin) which also contained the TR-FRET detection reagents (0.2 μM streptavidin-XL665 [Cisbio Bioassays, Codolet, France] and 1 nM anti-phoshoSerine antibody [Merck Millipore, cat. #35-001] and 0.4 nM LANCE EU-W1024 labeled anti-mouse IgG antibody [Perkin-Elmer, product no. AD0077, alternatively a Terbium-cryptate-labeled anti-mouse IgG antibody from Cisbio Bioassays can be used]). The stopped reaction mixture was further incubated 1 h at 22° C. in order to allow the formation of complexes between peptides and detection reagents. Subsequently, the amount of product was evaluated by measurement of the resonance energy transfer from the Eu-chelate-antibody complex recognizing the Phosphoserine residue to the streptavidin-XL665 bound to the biotin moiety of the peptide. […] IC50 values were calculated by fitting the normalized inhibition data to a 4-parameter logistic equation (Minimum, Maximum, IC50, Hill; Y=Max+(Min−Max)/(1+(X/IC50)Hill)).

Assay [2] concerns HeLa human cervical tumor cells. Kind of assay: Proliferation assay (HeLa cell line).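 Note: crystal violet staining, absorbance at 595 nm, 0.001–10 µM test range, 4-day exposure, 0% is cell number at dosing and 100% untreated growth, IC50 from 4-parameter fit.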 The following applies: 96 h, read-out: Biological Assay 2: Proliferation assay (HeLa cell line) median IC50.
Protocol: Cultivated HeLa human cervical tumor cells (cells were ordered from ATCC CCL-2) were plated at a density of 3000 cells/well in a 96-well multititer plates in 200 microL DMEM/HAMS F12 culture medium (Biochrom F4815) supplemented with 10% fetal calf serum. After 24 hours, the cells of one plate (zero-point plate) were stained with crystal violet (see below), while the medium of the other plates was replaced by fresh culture medium (200 microL) containing the test substances in various concentrations (0 microM, as well as in the range of 0.001-10 microM; the final concentration of the solvent dimethyl sulfoxide was 0.5%). The cells were incubated for 4 days in the presence of test substances. Cell proliferation was determined by staining the cells with crystal violet: the cells were fixed by adding 20 microL/measuring point of an 11% glutaric aldehyde solution for 15 minutes at room temperature. After three washing cycles of the fixed cells with water, the plates were dried at room temperature. The cells were stained by adding 100 microL/measuring point of a 0.1% crystal violet solution (pH 3.0). After three washing cycles of the stained cells with water, the plates were dried at room temperature. The dye was dissolved by adding 100 microL/measuring point of a 10% acetic acid solution. Absorption was determined by photometry at a wavelength of 595 nm. The change of cell number, in percent, was calculated by normalization of the measured values to the absorption values of the zero-point plate (=0%) and the absorption of the untreated (0 microM) cells (=100%). The IC50 values were determined by means of a 4 parameter fit.
[3] abbreviates: TR-FRET, recombinant catalytic domain of human Bub1, ATP 10 μM, peptide substrate 1 μM, 60 min at 22° C., read-out: Biological Assay 1: Bub1 kinase assay median IC50.

pIC50: −log10 of the molar value. Where two headings read alike, the source gives them in different places.

T1 sequence (O43683 704-1085): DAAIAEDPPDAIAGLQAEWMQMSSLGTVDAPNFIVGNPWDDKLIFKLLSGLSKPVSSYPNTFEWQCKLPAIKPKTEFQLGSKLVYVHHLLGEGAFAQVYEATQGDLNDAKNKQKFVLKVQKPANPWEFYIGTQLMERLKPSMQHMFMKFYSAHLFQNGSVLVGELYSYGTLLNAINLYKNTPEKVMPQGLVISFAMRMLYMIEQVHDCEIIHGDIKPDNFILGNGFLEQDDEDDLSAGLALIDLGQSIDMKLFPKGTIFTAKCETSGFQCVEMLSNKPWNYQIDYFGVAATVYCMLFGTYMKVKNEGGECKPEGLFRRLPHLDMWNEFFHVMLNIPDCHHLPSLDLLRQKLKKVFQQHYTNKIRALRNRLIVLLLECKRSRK

`COc1cnc(-c2nn(Cc3c(Cl)ccnc3Cl)c3ccccc23)nc1Nc1ccncc1` [Example 2-1-1, 2-{1-[(2,4-dichloropyridin-3-yl)methyl]-1H-indazol-3-yl}-5-methoxy-N-(pyridin-4-yl)pyrimidin-4-amine]: the pIC50 was 8.08 in assay [1] and 5.59 in assay [2].
In the case of `COc1cnc(-c2nn(Cc3ncc(F)cc3F)c3ccccc23)nc1Nc1ccncc1` [Example 2-1-2, 2-{1-[(3,5-difluoropyridin-2-yl)methyl]-1H-indazol-3-yl}-5-methoxy-N-(pyridin-4-yl)pyrimidin-4-amine], the pIC50 in assay [1] is 8.05; in assay [2], under 5.00.
In the case of `COc1cnc(-c2nn(Cc3c(C)noc3C)c3ccccc23)nc1Nc1ccncc1` [Example 2-1-3, 2-{1-[(3,5-dimethyl-1,2-oxazol-4-yl)methyl]-1H-indazol-3-yl}-5-methoxy-N-(pyridin-4-yl)pyrimidin-4-amine], the pIC50 in assay [1] (setting [3]) was 7.52; in assay [2] it was under 5.00.
Consider `COc1cnc(-c2nn(Cc3cnn(C)c3C)c3ccccc23)nc1Nc1ccncc1` [Example 2-1-4, 2-{1-[(1,5-dimethyl-1H-pyrazol-4-yl)methyl]-1H-indazol-3-yl}-5-methoxy-N-(pyridin-4-yl)pyrimidin-4-amine], for which the results for the pIC50 in assay [1] (setting [3]) and in assay [2] were 7.38 and under 5.00, respectively.
Take `COc1cnc(-c2nn(Cc3ccc(C(F)(F)F)nc3C)c3ccccc23)nc1Nc1ccncc1` [Example 2-1-5, 5-methoxy-2-(1-{[2-methyl-6-(trifluoromethyl)pyridin-3-yl]methyl}-1H-indazol-3-yl)-N-(pyridin-4-yl)pyrimidin-4-amine]: the pIC50 in assay [1] is 7.24; in assay [2], 5.15.
For `COc1cnc(-c2nn(Cc3c(C)nnn3C(F)F)c3ccccc23)nc1Nc1ccncc1` [Example 2-1-6, 2-(1-{[1-(difluoromethyl)-4-methyl-1H-1,2,3-triazol-5-yl]methyl}-1H-indazol-3-yl)-5-methoxy-N-(pyridin-4-yl)pyrimidin-4-amine], the pIC50 in assay [1] (setting [3]) is 6.82.
Compound `COc1cnc(-c2nn(Cc3c(C(F)F)nn(C)c3OCC(F)(F)F)c3ccccc23)nc1Nc1ccncc1` [Example 2-1-7, 2-(1-{[3-(difluoromethyl)-1-methyl-5-(2,2,2-trifluoroethoxy)-1H-pyrazol-4-yl]methyl}-1H-indazol-3-yl)-5-methoxy-N-(pyridin-4-yl)pyrimidin-4-amine] gave a pIC50 in assay [1] of 6.35.
`COc1cnc(-c2nn(Cc3c(C(F)(F)F)nnn3C)c3ccccc23)nc1Nc1ccncc1` [Example 2-1-8, 5-methoxy-2-(1-{[1-methyl-4-(trifluoromethyl)-1H-1,2,3-triazol-5-yl]methyl}-1H-indazol-3-yl)-N-(pyridin-4-yl)pyrimidin-4-amine]: the pIC50 was 6.21 in assay [1] (setting [3]) and under 5.00 in assay [2].
As for `COc1cnc(-c2nn(Cc3c(C)nnn3C(F)F)c3ccccc23)nc1N(Cc1c(C)nnn1C(F)F)c1ccncc1` [Example 2-1-9, N-{[1-(difluoromethyl)-4-methyl-1H-1,2,3-triazol-5-yl]methyl}-2-(1-{[1-(difluoromethyl)-4-methyl-1H-1,2,3-triazol-5-yl]methyl}-1H-indazol-3-yl)-5-methoxy-N-(pyridin-4-yl)pyrimidin-4-amine], the pIC50 in assay [1] (setting [3]) is 6.10.
For the compound `COc1cnc(-c2nn(Cc3c(C(F)(F)F)nn(C)c3C(F)F)c3ccccc23)nc1Nc1ccncc1` [Example 2-1-10, 2-(1-{[5-(difluoromethyl)-1-methyl-3-(trifluoromethyl)-1H-pyrazol-4-yl]methyl}-1H-indazol-3-yl)-5-methoxy-N-(pyridin-4-yl)pyrimidin-4-amine], the pIC50 in assay [1] is 5.49.
With `COc1cnc(-c2nn(Cc3c(Cl)cnn3C)c3ccccc23)nc1Nc1ccncc1` [Example 2-2-1, 2-{1-[(4-chloro-1-methyl-1H-pyrazol-5-yl)methyl]-1H-indazol-3-yl}-5-methoxy-N-(pyridin-4-yl)pyrimidin-4-amine], the values for the pIC50 in assay [1] (setting [3]) and in assay [2] were 8.05 and under 5.00, respectively.
The like results for `COc1cnc(-c2nn(Cc3nn(C)cc3Cl)c3ccccc23)nc1Nc1ccncc1` [Example 2-2-2, 2-{1-[(4-chloro-1-methyl-1H-pyrazol-3-yl)methyl]-1H-indazol-3-yl}-5-methoxy-N-(pyridin-4-yl)pyrimidin-4-amine] were, in that order, 7.34 and 5.36.
The like results for `COc1cnc(-c2nn(Cc3nsc(N)n3)c3ccccc23)nc1Nc1ccncc1` [Example 2-2-3, 2-{1-[(5-amino-1,2,4-thiadiazol-3-yl)methyl]-1H-indazol-3-yl}-5-methoxy-N-(pyridin-4-yl)pyrimidin-4-amine] were, in that order, 7.27 and under 5.00.
The like results for `COCc1noc(Cn2nc(-c3ncc(OC)c(Nc4ccncc4)n3)c3ccccc32)n1` [Example 2-2-4, 5-methoxy-2-(1-{[3-(methoxymethyl)-1,2,4-oxadiazol-5-yl]methyl}-1H-indazol-3-yl)-N-(pyridin-4-yl)pyrimidin-4-amine] were, in that order, 6.55 and under 5.00.
`CNC(=O)c1nc(Cn2nc(-c3ncc(OC)c(Nc4ccncc4)n3)c3ccccc32)no1` [Example 2-2-5, 3-({3-[5-methoxy-4-(pyridin-4-ylamino)pyrimidin-2-yl]-1H-indazol-1-yl}methyl)-N-methyl-1,2,4-oxadiazole-5-carboxamide]: the pIC50 in assay [1] (setting [3]) is 6.27; in assay [2], under 5.00.
With `COc1cnc(-c2nn(Cc3cn4cccnc4n3)c3ccccc23)nc1Nc1ccncc1` [Example 2-2-6, 2-[1-(imidazo[1,2-a]pyrimidin-2-ylmethyl)-1H-indazol-3-yl]-5-methoxy-N-(pyridin-4-yl)pyrimidin-4-amine], the pIC50 in assay [1] (setting [3]) is 5.80.
As for `COc1cnc(-c2nn(Cc3cc(=O)[nH]c(=O)[nH]3)c3ccccc23)nc1Nc1ccncc1` [Example 2-2-7, 6-({3-[5-methoxy-4-(pyridin-4-ylamino)pyrimidin-2-yl]-1H-indazol-1-yl}methyl)pyrimidine-2,4(1H,3H)-dione], the pIC50 is 5.51 in assay [1] and under 5.00 in assay [2].
`CNC(=O)c1cnccc1Nc1nc(-c2nn(Cc3nc(COC)no3)c3ccccc23)ncc1OC` [Example 2-2-8, 4-{[5-methoxy-2-(1-{[3-(methoxymethyl)-1,2,4-oxadiazol-5-yl]methyl}-1H-indazol-3-yl)pyrimidin-4-yl]amino}-N-methylnicotinamide]: the figures for the pIC50 in assay [1] (setting [3]) and in assay [2] were 7.77 and under 5.00, respectively.
Consider `COc1cnc(-c2nn(Cc3cc(C(C)C)no3)c3ccccc23)nc1Nc1ccncc1C(N)=O` [Example 2-2-9, 4-[(2-{1-[(3-isopropyl-1,2-oxazol-5-yl)methyl]-1H-indazol-3-yl}-5-methoxypyrimidin-4-yl)amino]nicotinamide], for which the pIC50 is 8.16 in assay [1] and 5.41 in assay [2].
The like results for `COCc1noc(Cn2nc(-c3ncc(OC)c(Nc4ccncc4C(N)=O)n3)c3ccccc32)n1` [Example 2-2-10, 4-{[5-methoxy-2-(1-{[3-(methoxymethyl)-1,2,4-oxadiazol-5-yl]methyl}-1H-indazol-3-yl)pyrimidin-4-yl]amino}nicotinamide] were, in that order, 8.32 and under 5.00.
For the compound `COc1cnc(-c2nn(Cc3cscn3)c3ccccc23)nc1Nc1ccncc1C(N)=O` [Example 2-2-11, 4-({5-methoxy-2-[1-(1,3-thiazol-4-ylmethyl)-1H-indazol-3-yl]pyrimidin-4-yl}amino)nicotinamide], the pIC50 is 8.10 in assay [1] and 5.06 in assay [2].
Turning to `CNC(=O)c1cnccc1Nc1nc(-c2nn(Cc3cc(C(C)C)no3)c3ccccc23)ncc1OC` [Example 2-2-12, 4-[(2-{1-[(3-isopropyl-1,2-oxazol-5-yl)methyl]-1H-indazol-3-yl}-5-methoxypyrimidin-4-yl)amino]-N-methylnicotinamide], the pIC50 in assay [1] is 8.24; in assay [2] it was under 5.00.
In the case of `COc1cnc(-c2nn(Cc3nnc(C)o3)c3ccccc23)nc1Nc1ccncc1C(N)=O` [Example 2-2-13, 4-[(5-methoxy-2-{1-[(5-methyl-1,3,4-oxadiazol-2-yl)methyl]-1H-indazol-3-yl}pyrimidin-4-yl)amino]nicotinamide], the figures for the pIC50 in assay [1] and in assay [2] were 7.66 and under 5.00, respectively.
Turning to `CNC(=O)c1cnccc1Nc1nc(-c2nn(Cc3nnc(C)o3)c3ccccc23)ncc1OC` [Example 2-2-15, 4-[(5-methoxy-2-{1-[(5-methyl-1,3,4-oxadiazol-2-yl)methyl]-1H-indazol-3-yl}pyrimidin-4-yl)amino]-N-methylnicotinamide], the pIC50 in assay [1] is 7.00.
Same read-out and setting: in the case of `Cc1noc(C)c1Cn1nc(-c2nc(N)cc(Nc3ccncc3C(=O)NCCO)n2)c2ccccc21` [Example 2-4-1, 4-[(6-amino-2-{1-[(3,5-dimethyl-1,2-oxazol-4-yl)methyl]-1H-indazol-3-yl}pyrimidin-4-yl)amino]-N-(2-hydroxyethyl)nicotinamide] it was 7.47.

(Values after patent US20160046604A1, “HETEROARYL SUBSTITUTED INDAZOLES” (BAYER PHARMA AKTIENGESELLSCHAFT, priority 2013, published 2016).)
